Assay results: patent publication US5498632A, “Esters of acyl carnitines with long-chain aliphatic alcohols and pharmaceutical compositions containing same having antibacterial activity” (Sigma-Tau Industrie Farmaceutiche Riunite S.p.A., priority 1992, dated 1996)
Read-outs that look alike come from different tables or passages of the source.

How the values were obtained:
Format in all cases: cell-based
[1] = system: Staphylococcus aureus (306 MR); experiment: MIC in broth, Gram+ strains; conditions: S. aureus (306 MR), Mueller-Hinton broth, 37° C., 18 hours, read-out: Minimal Inhibitory Concentration (MIC)
Experimental: (§1) Evaluation of the Minimal Inhibitory Concentration (MIC) in broth of 15 new substances for Gram+ bacterial strains.
(§2) The following strains were used: Staphylococcus aureus (4); Streptococcus faecalis (8); Bacillus pumilus (1); Bacillus subtilis (1).
(§3) MICs were determined by a standard microdilution test, using serial two-fold dilutions of the substances in Mueller-Hinton broth.
(§4) The inoculum was prepared from an overnight culture in Mueller-Hinton broth matching the 0.5 Mc Farland (turbidity) standard (BRAY W. E., Clinical Laboratory Methods, 5th Ed. C. V. MOSBY, St. Louis, Mo. 1957), and was adjusted to a final concentration of 5.0×10^4 colony-forming units/ml.
(§5) Equal volumes (0.1 ml) of both bacterial suspensions and substance solutions were distributed in microtiter plates (Falcon, 96 wells, round bottom), and then placed in a humidified incubator (37° C.) for 18 hours.
(§6) The results, in terms of MIC values, resistant strain number and mean MIC values versus susceptible strains, are illustrated in Tables 1-6.

[2] = system: Staphylococcus aureus (ATCC 14154); experiment: MIC in broth, Gram+ strains; conditions: ATCC14154, S. aureus (ATCC 14154), Mueller-Hinton broth, 37° C., 18 hours, read-out: Minimal Inhibitory Concentration (MIC)
Experimental: as §1, §2, §3, §4, §5, §6

[3] = system: Staphylococcus aureus (LC1); experiment: MIC in broth, Gram+ strains; conditions: S. aureus (LC1), Mueller-Hinton broth, 37° C., 18 hours, read-out: Minimal Inhibitory Concentration (MIC)
Experimental: as §1, §2, §3, §4, §5, §6

[4] = system: Streptococcus faecalis (518); experiment: MIC in broth, Gram+ strains; conditions: Enterococcus faecalis; S. faecalis (518), Mueller-Hinton broth, 37° C., 18 hours; read-out: Minimal Inhibitory Concentration (MIC)
Experimental: as §1, §2, §3, §4, §5, §6

[5] = system: Streptococcus faecalis (519); experiment: MIC in broth, Gram+ strains; conditions: Enterococcus faecalis; S. faecalis (519), Mueller-Hinton broth, 37° C., 18 hours; read-out: Minimal Inhibitory Concentration (MIC)
Experimental: as §1, §2, §3, §4, §5, §6

Gram+ bacterial strains = experiment: Mean MIC in broth and resistant strain number, Gram+ strains; conditions: 18 h, versus susceptible strains
Experimental: as §1, §2, §3, §4, §5, §6

Escherichia coli (76 F) = experiment: MIC in broth, Gram- strains; conditions: 18 h, E. coli (76 F), read-out: Minimal Inhibitory Concentration (MIC)
Experimental: as §3, §4, §5
(§7) Evaluation of the Minimal Inhibitory Concentration (MIC) in broth of 16 new substances for Gram- bacterial strains.
(§8) The following strains were used: Enterobacter (1), Escherichia (3), Klebsiella (3), Proteus (3); Pseudomonas (2); Salmonella (2), Serratia (1).

Klebsiella oxytoca (552) = experiment: MIC in broth, Gram- strains; conditions: 18 h, read-out: Minimal Inhibitory Concentration (MIC)
Experimental: as §3, §4, §5, §7, §8

[6] = system: Pseudomonas aeruginosa (3 E); experiment: MIC in broth, Gram- strains; conditions: 18 h, read-out: Minimal Inhibitory Concentration (MIC)
Experimental: as §3, §4, §5, §7, §8

[7] = system: Salmonella typhimurium (D.S.); experiment: MIC in broth, Gram- strains; conditions: Salmonella enterica, 18 h, read-out: Minimal Inhibitory Concentration (MIC)
Experimental: as §3, §4, §5, §7, §8

Gram- bacterial strains = experiment: Mean MIC in broth and resistant strain number, Gram- strains; conditions: 18 h, read-out: Mean MIC values
Experimental: as §3, §4, §5, §7, §8

[8] = system: Bacillus pumilus (CN 607); experiment: MIC in broth, Gram+ strains; conditions: B. pumilus (CN 607), Mueller-Hinton broth, 37° C., 18 hours, read-out: Minimal Inhibitory Concentration (MIC)
Experimental: as §1, §2, §3, §4, §5, §6

[9] = system: Bacillus subtilis (ATCC 6051); experiment: MIC in broth, Gram+ strains; conditions: ATCC6051, B. subtilis (ATCC 6051), Mueller-Hinton broth, 37° C., 18 hours, read-out: Minimal Inhibitory Concentration (MIC)
Experimental: as §1, §2, §3, §4, §5, §6

[10] = system: Staphylococcus aureus (303); experiment: MIC in broth, Gram+ strains; conditions: S. aureus (303), Mueller-Hinton broth, 37° C., 18 hours, read-out: Minimal Inhibitory Concentration (MIC)
Experimental: as §1, §2, §3, §4, §5, §6

[11] = system: Streptococcus faecalis (501); experiment: MIC in broth, Gram+ strains; conditions: Enterococcus faecalis; S. faecalis (501), Mueller-Hinton broth, 37° C., 18 hours; read-out: Minimal Inhibitory Concentration (MIC)
Experimental: as §1, §2, §3, §4, §5, §6

[12] = system: Streptococcus faecalis (505); experiment: MIC in broth, Gram+ strains; conditions: Enterococcus faecalis; S. faecalis (505), Mueller-Hinton broth, 37° C., 18 hours; read-out: Minimal Inhibitory Concentration (MIC)
Experimental: as §1, §2, §3, §4, §5, §6

[13] = system: Streptococcus faecalis (509); experiment: MIC in broth, Gram+ strains; conditions: Enterococcus faecalis; S. faecalis (509), Mueller-Hinton broth, 37° C., 18 hours; read-out: Minimal Inhibitory Concentration (MIC)
Experimental: as §1, §2, §3, §4, §5, §6

[14] = system: Streptococcus faecalis (516); experiment: MIC in broth, Gram+ strains; conditions: Enterococcus faecalis; S. faecalis (516), Mueller-Hinton broth, 37° C., 18 hours; read-out: Minimal Inhibitory Concentration (MIC)
Experimental: as §1, §2, §3, §4, §5, §6

[15] = system: Streptococcus faecalis (R 2); experiment: MIC in broth, Gram+ strains; conditions: Enterococcus faecalis; S. faecalis (R 2), Mueller-Hinton broth, 37° C., 18 hours; read-out: Minimal Inhibitory Concentration (MIC)
Experimental: as §1, §2, §3, §4, §5, §6

[16] = system: Streptococcus faecalis (UM); experiment: MIC in broth, Gram+ strains; conditions: Enterococcus faecalis; S. faecalis (UM), Mueller-Hinton broth, 37° C., 18 hours; read-out: Minimal Inhibitory Concentration (MIC)
Experimental: as §1, §2, §3, §4, §5, §6

Escherichia coli (92 F) = experiment: MIC in broth, Gram- strains; conditions: 18 h, E. coli (92 F), read-out: Minimal Inhibitory Concentration (MIC)
Experimental: as §3, §4, §5, §7, §8

Escherichia coli (R 57B) = experiment: MIC in broth, Gram- strains; conditions: 18 h, E. coli (R 57B), read-out: Minimal Inhibitory Concentration (MIC)
Experimental: as §3, §4, §5, §7, §8

[17] = system: Klebsiella aerogenes (SH 1082); experiment: MIC in broth, Gram- strains; conditions: 18 h, read-out: Minimal Inhibitory Concentration (MIC)
Experimental: as §3, §4, §5, §7, §8

[18] = system: Klebsiella pneumoniae (7823); experiment: MIC in broth, Gram- strains; conditions: 18 h, read-out: Minimal Inhibitory Concentration (MIC)
Experimental: as §3, §4, §5, §7, §8

Proteus mirabilis (32) = experiment: MIC in broth, Gram- strains; conditions: 18 h, read-out: Minimal Inhibitory Concentration (MIC)
Experimental: as §3, §4, §5, §7, §8

Proteus morganii (D.S.) = experiment: MIC in broth, Gram- strains; conditions: Morganella morganii, 18 h, read-out: Minimal Inhibitory Concentration (MIC)
Experimental: as §3, §4, §5, §7, §8

Proteus vulgaris (UM) = experiment: MIC in broth, Gram- strains; conditions: 18 h, read-out: Minimal Inhibitory Concentration (MIC)
Experimental: as §3, §4, §5, §7, §8

[19] = system: Pseudomonas aeruginosa (10 E); experiment: MIC in broth, Gram- strains; conditions: 18 h, read-out: Minimal Inhibitory Concentration (MIC)
Experimental: as §3, §4, §5, §7, §8

Salmonella typhi (J) = experiment: MIC in broth, Gram- strains; conditions: Salmonella enterica, 18 h, read-out: Minimal Inhibitory Concentration (MIC)
Experimental: as §3, §4, §5, §7, §8

SMILES	MIC [1]	MIC [2]	MIC [3]	MIC [4]	MIC [5]	MIC (Gram+ bacterial strains)	MIC (Klebsiella oxytoca (552))	MIC [6]	MIC [7]	MIC (Gram- bacterial strains)	MIC [8]	MIC [9]	MIC [10]	MIC [11]	MIC [12]	MIC [13]	MIC [14]	MIC [15]	MIC [16]	MIC (Escherichia coli (92 F))	further results
CCCCCCCCCCCOC(=O)CC(C[N+](C)(C)C)OC(=O)CCCCCCC (stereo not shown) [ST 1000]	3.12 µg/mL	1.56 µg/mL	1.56 µg/mL	3.12 µg/mL	3.12 µg/mL	2.49 µg/mL	> 100 µg/mL	> 100 µg/mL	> 100 µg/mL	> 100 µg/mL	–	–	–	–	–	–	–	–	–	–	MIC (Escherichia coli (76 F)): > 100 µg/mL
CCCCCCCCCCCOC(=O)CC(C[N+](C)(C)C)OC(=O)CCC(C)C (stereo not shown) [ST 1034]	3.12 µg/mL	3.12 µg/mL	1.56 µg/mL	1.56 µg/mL	1.56 µg/mL	2 µg/mL	12.5 µg/mL	50 µg/mL	100 µg/mL	–	1.56 µg/mL	3.12 µg/mL	3.12 µg/mL	1.56 µg/mL	1.56 µg/mL	1.56 µg/mL	1.56 µg/mL	1.56 µg/mL	1.56 µg/mL	25 µg/mL	MIC (Escherichia coli (R 57B)): 50 µg/mL; MIC [17]: 25 µg/mL; MIC [18]: 12.5 µg/mL; MIC (Proteus mirabilis (32)): > 100 µg/mL; MIC (Proteus morganii (D.S.)): 100 µg/mL; MIC (Proteus vulgaris (UM)): > 100 µg/mL; MIC [19]: 50 µg/mL; MIC (Salmonella typhi (J)): 25 µg/mL; MIC (Gram- bacterial strains; Gram- strains, versus susceptible strains): 45 µg/mL
CCCCCCCCCCCOC(=O)CC(C[N+](C)(C)C)OC(=O)CCCCCC (stereo not shown) [ST 1036]	3.12 µg/mL	3.12 µg/mL	1.56 µg/mL	3.12 µg/mL	3.12 µg/mL	2.45 µg/mL	50 µg/mL	100 µg/mL	> 100 µg/mL	60.7 µg/mL	1.56 µg/mL	3.12 µg/mL	3.12 µg/mL	1.56 µg/mL	1.56 µg/mL	1.56 µg/mL	3.12 µg/mL	3.12 µg/mL	1.56 µg/mL	25 µg/mL	MIC (Escherichia coli (R 57B)): > 100 µg/mL; MIC [17]: 100 µg/mL; MIC [18]: 12.5 µg/mL; MIC (Proteus mirabilis (32)): > 100 µg/mL; MIC (Proteus morganii (D.S.)): > 100 µg/mL; MIC (Proteus vulgaris (UM)): > 100 µg/mL; MIC [19]: > 100 µg/mL; MIC (Salmonella typhi (J)): 25 µg/mL
